Source: patent US20260041640A1 (INCYCLIX BIO, LLC, priority 2023, published 2026)
pIC50: −log10 of the molar value. Like-named read-outs stand apart in the source and are kept apart here. Marks after values point to notes of the source that are not given here.

How the values were obtained:
Ovcar-3 = details: BLU-222: based on Ovcar-3 cell cycle data (maximum G1 arrest); read-out: Cellular IC50; cited from earlier work
[1] = cited from earlier work
CCNE1-amplified cancers = details: BID dosing; cited from earlier work
[2] = treatment-related AEs, cited from earlier work
[3] = Published human plasma PK of BLU-222 and PF-07104091 (estimated from 2023 ASCO presentations); type: in vivo; details: for Cmax to Cmin Ratio: estimated from published human results
From the text: This is under the assumption that off-target toxicity is driven by Cmax and efficacy is driven by time above therapeutic threshold (Table 5).

CDK2/cyclin E [4] = molecular target: T1, CDK2/cyclin E (Homo sapiens, UniProt P24941); details: intracellular; read-out: Nanobret IC50 CDK2/cyclin E; cited from earlier work
CDK2/cyclin E [5] = molecular target: T1, CDK2/cyclin E; details: biochemical; read-out: Target IC50 CDK2/cyclin E; cited from earlier work
[6] = phase 1/2 trial, advanced solid tumors; cited from earlier work
[7] = plasma, 400 mg BID, estimated from published graph
[8] = plasma, 600 mg BID, estimated from published graph

**Q.** With `COCc1cc(C(=O)Nc2cc([C@H]3CC[C@@H](OC(=O)NC(C)C)C3)[nH]n2)n(C)n1` [PF-07104091] as the compound, how does the pIC50 (Ovcar-3) read?
**A.** Its pIC50 is over 7.00.

**Q.** What about the t1/2 ([1]; human, plasma) of the same compound?
**A.** The t1/2 was 2 to 3 h.

**Q.** What about the “MTD and monotherapy recommended dose for expansion (RDE)” value ([1]; human) of the same compound?
**A.** Its value is 300 mg BID.

**Q.** What about the Cmax ([1]; plasma, 300 mg BID, estimated from 2023 ASCO presentation) of the same compound?
**A.** The Cmax was ~2000* ng/mL.

**Q.** And the “In Vivo efficacy (efficacious dose)” value (CCNE1-amplified cancers)?
**A.** Its value is at least 100 mg/kg BID.

**Q.** And the anemia ([2]; Grade 3)?
**A.** The anemia was 8.6%.

**Q.** What about the diarrhea ([2]; Grade 3) of the same compound?
**A.** Its diarrhea is 8.6%.

**Q.** And the fatigue ([2]; Grade 3)?
**A.** The fatigue was 20.0%.

**Q.** What about the nausea ([2]; Grade 3) of the same compound?
**A.** The nausea was 14.3%.

**Q.** And the vomiting ([2]; Grade 3)?
**A.** Its vomiting is 2.9%.

**Q.** And the anemia ([2]; all grades)?
**A.** Its anemia is 45.7%.

**Q.** And the diarrhea ([2]; all grades)?
**A.** Its diarrhea is 48.6%.

**Q.** And the fatigue ([2]; all grades)?
**A.** The fatigue was 45.7%.

**Q.** What about the nausea ([2]; all grades) of the same compound?
**A.** Its nausea is 77.1%.

**Q.** What about the vomiting ([2]; all grades) of the same compound?
**A.** Its vomiting is 48.6%.

**Q.** What about the “C12 hr (Cmin at 12 hours)” value ([3]; 300 mg BID, estimated using Cmax of 2000 ng/mL and t1/2 of 2-3 hours) of the same compound?
**A.** The value was ~31-125* ng/mL.

**Q.** And the concentration at 12 h ([3]; human, 300 mg, read-out: C12 hr (Cmin at 12 hours))?
**A.** The concentration at 12 h was 31.2 to 125 ng/mL.

**Q.** With `FC(F)Oc1cc(Nc2cnc3cnn(CC4CCOCC4)c3n2)n[nH]1` [BLU-222] as the compound, how does the pIC50 (Ovcar-3) read?
**A.** Its pIC50 is under 7.00.

**Q.** What about the C12 hr [1, 7] of the same compound?
**A.** The C12 hr was 100* ng/mL.

**Q.** What about the Cmax [1, 7] of the same compound?
**A.** The Cmax was 927* ng/mL.

**Q.** What about the C12 hr [1, 8] of the same compound?
**A.** The C12 hr was 120* ng/mL.

**Q.** What about the Cmax [1, 8] of the same compound?
**A.** Its Cmax is 2639* ng/mL.

**Q.** What about the pIC50 (CDK2/cyclin E [4]) of the same compound?
**A.** Its pIC50 is 7.75.

**Q.** What about the “In Vivo efficacy (efficacious dose)” value (CCNE1-amplified cancers) of the same compound?
**A.** Its value is 100 mg/kg mg/kg BID.

**Q.** And the pIC50 (CDK2/cyclin E [5])?
**A.** The pIC50 was 8.59.

**Q.** What about the “ocular adverse events (AEs) affecting vision, incidence” value [6] of the same compound?
**A.** Its value is 19%.

**Q.** And the “ocular adverse events (AEs) affecting vision, patients” value [6]?
**A.** Its value is 5 patients.

**Q.** What about the “Cmax to Cmin Ratio” value ([3]; 400 mg BID) of the same compound?
**A.** Its value is 9.3.

**Q.** And the “Cmax to Cmin Ratio” value ([3]; 600 mg BID)?
**A.** Its value is 22.
